Data from PubChem BioAssay AID2060492 (Molecular Pharmacology Branch, DTP, NCI, 2025).

Test system: 695427-040-R-J1-PDC complex spheroids, viability percent T/C
Assay: Anticancer human tumor 695427-040-R-J1-PDC patient-derived colon adenocarcinoma cell line growth inhibition [GQUAD]
Details: for IC50: curve of first compound; for viability, T/C: stronger effect = lower value; active means viability on the fitted dose curve at most 10% of control; inactive means the rest
Method in brief: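 Multi-cell-type spheroids of tumor cells with HUVEC and mesenchymal stem cells, treated with drug combinations. Concentrations descend in half-log steps from near clinical Cmax, or from 10 microM where Cmax is unknown; viability read-out.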

[1] = second compound 0.0316 µM, first compound 0.0316 µM
[2] = second compound 0.0316 µM, first compound 0.1 µM
[3] = second compound 0.0316 µM, first compound 0.316 µM
[4] = second compound 0.0316 µM, first compound 1 µM
[5] = second compound 0.0316 µM, first compound 3.16 µM
[6] = second compound 0.0316 µM, first compound 10 µM
[7] = second compound 0.1 µM, first compound 0.0316 µM
[8] = second compound 0.1 µM, first compound 0.1 µM
[9] = second compound 0.1 µM, first compound 0.316 µM
[10] = second compound 0.1 µM, first compound 1 µM
[11] = second compound 0.1 µM, first compound 3.16 µM
[12] = second compound 0.1 µM, first compound 10 µM
[13] = second compound 0.316 µM, first compound 0.0316 µM
[14] = second compound 0.316 µM, first compound 0.1 µM
[15] = second compound 0.316 µM, first compound 0.316 µM
[16] = second compound 0.316 µM, first compound 1 µM
[17] = second compound 0.316 µM, first compound 3.16 µM
[18] = second compound 0.316 µM, first compound 10 µM
[19] = second compound 1 µM, first compound 0.0316 µM
[20] = second compound 1 µM, first compound 0.1 µM
[21] = second compound 1 µM, first compound 0.316 µM
[22] = second compound 1 µM, first compound 1 µM
[23] = second compound 1 µM, first compound 3.16 µM
[24] = second compound 1 µM, first compound 10 µM
[25] = second compound 3.16 µM, first compound 0.0316 µM
[26] = second compound 3.16 µM, first compound 0.1 µM
[27] = second compound 3.16 µM, first compound 0.316 µM
[28] = second compound 3.16 µM, first compound 1 µM
[29] = second compound 3.16 µM, first compound 3.16 µM
[30] = second compound 3.16 µM, first compound 10 µM
[31] = second compound 10 µM, first compound 0.0316 µM
[32] = second compound 10 µM, first compound 0.1 µM
[33] = second compound 10 µM, first compound 0.316 µM
[34] = second compound 10 µM, first compound 1 µM
[35] = second compound 10 µM, first compound 3.16 µM
[36] = second compound 10 µM, first compound 10 µM
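Further: spheroids exposed to compounds for seven days before readout.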

CC1COCCN1c1cc(C2(S(C)(=N)=O)CC2)nc(-c2ccnc3[nH]ccc23)n1 (stereo unspecified) + Cc1cnc(CNC(=O)c2c(=O)c3ccc(N4CCCN(C)CC4)nc3n3c2sc2ccccc23)cn1
inactive: viability, T/C [1] 95.6% | viability, T/C [2] 93.5% | viability, T/C [3] 95.3% | viability, T/C [4] 94.2% | viability, T/C [5] 74.8% | viability, T/C [6] 66.2% | viability, T/C [7] 85.2% | viability, T/C [8] 79.1% | viability, T/C [9] 89.3% | viability, T/C [10] 64.4% | viability, T/C [11] 74.2% | viability, T/C [12] 55.4% | viability, T/C [13] 76.8% | viability, T/C [14] 71.5% | viability, T/C [15] 77.5% | viability, T/C [16] 66.1% | viability, T/C [17] 77.9% | viability, T/C [18] 50.4% | viability, T/C [19] 51.8% | viability, T/C [20] 66.6% | viability, T/C [21] 59.7% | viability, T/C [22] 66.7% | viability, T/C [23] 62.7% | viability, T/C [24] 47.3% | viability, T/C [25] 33.4% | viability, T/C [26] 58.1% | viability, T/C [27] 53.2% | viability, T/C [28] 49.4% | viability, T/C [29] 51.5% | viability, T/C [30] 36.9% | viability, T/C [31] 33.8% | viability, T/C [32] 36.5% | viability, T/C [33] 41.7% | viability, T/C [34] 39.1% | viability, T/C [35] 44% | viability, T/C [36] 25.5%
< 0.0316 µM: IC50 (second compound 3.16 µM) | IC50 (second compound 10 µM)
> 10 µM: IC50 (second compound 0.0316 µM) | IC50 (second compound 0.1 µM) | IC50 (second compound 0.316 µM) | IC50 (second compound 1 µM)

Cn1ncnc1[C@H]1c2n[nH]c(=O)c3cc(F)cc(c23)N[C@@H]1c1ccc(F)cc1 + Cc1cnc(CNC(=O)c2c(=O)c3ccc(N4CCCN(C)CC4)nc3n3c2sc2ccccc23)cn1
inactive: viability, T/C (second compound 0.0316 µM, first compound 0.000999 µM) 98.9% | viability, T/C (second compound 0.0316 µM, first compound 0.00316 µM) 84.2% | viability, T/C (second compound 0.0316 µM, first compound 0.00999 µM) 96.4% | viability, T/C [1] 66.4% | viability, T/C (second compound 0.0316 µM, first compound 0.0999 µM) 86.2% | viability, T/C [3] 71.7% | viability, T/C (second compound 0.1 µM, first compound 0.000999 µM) 93.5% | viability, T/C (second compound 0.1 µM, first compound 0.00316 µM) 101% | viability, T/C (second compound 0.1 µM, first compound 0.00999 µM) 87.5% | viability, T/C [7] 62.9% | viability, T/C (second compound 0.1 µM, first compound 0.0999 µM) 91.8% | viability, T/C [9] 60.6% | viability, T/C (second compound 0.316 µM, first compound 0.000999 µM) 65.7% | viability, T/C (second compound 0.316 µM, first compound 0.00316 µM) 83.5% | viability, T/C (second compound 0.316 µM, first compound 0.00999 µM) 88.1% | viability, T/C [13] 71.5% | viability, T/C (second compound 0.316 µM, first compound 0.0999 µM) 66% | viability, T/C [15] 66% | viability, T/C (second compound 1 µM, first compound 0.000999 µM) 53.7% | viability, T/C (second compound 1 µM, first compound 0.00316 µM) 53.9% | viability, T/C (second compound 1 µM, first compound 0.00999 µM) 60.7% | viability, T/C [19] 55.9% | viability, T/C (second compound 1 µM, first compound 0.0999 µM) 82.5% | viability, T/C [21] 56.5% | viability, T/C (second compound 3.16 µM, first compound 0.000999 µM) 51.6% | viability, T/C (second compound 3.16 µM, first compound 0.00316 µM) 48.7% | viability, T/C (second compound 3.16 µM, first compound 0.00999 µM) 53% | viability, T/C [25] 62.1% | viability, T/C (second compound 3.16 µM, first compound 0.0999 µM) 63.3% | viability, T/C [27] 46.5% | viability, T/C (second compound 10 µM, first compound 0.000999 µM) 37.8% | viability, T/C (second compound 10 µM, first compound 0.00316 µM) 44.7% | viability, T/C (second compound 10 µM, first compound 0.00999 µM) 58.2% | viability, T/C [31] 47.7% | viability, T/C (second compound 10 µM, first compound 0.0999 µM) 58.5% | viability, T/C [33] 40.1%
> 0.316 µM: IC50 (second compound 0.0316 µM) | IC50 (second compound 0.1 µM) | IC50 (second compound 0.316 µM) | IC50 (second compound 1 µM) | IC50 (second compound 3.16 µM)
< 0.000999 µM: IC50 (second compound 10 µM)

O=C(c1cc(Cc2n[nH]c(=O)c3ccccc23)ccc1F)N1CCN(C(=O)C2CC2)CC1 + Cc1cnc(CNC(=O)c2c(=O)c3ccc(N4CCCN(C)CC4)nc3n3c2sc2ccccc23)cn1
inactive: viability, T/C [1] 94.2% | viability, T/C [2] 101% | viability, T/C [3] 93.5% | viability, T/C [4] 77.7% | viability, T/C [5] 83.5% | viability, T/C [6] 90.9% | viability, T/C [7] 102% | viability, T/C [8] 79% | viability, T/C [9] 95.5% | viability, T/C [10] 57% | viability, T/C [11] 92.7% | viability, T/C [12] 87.3% | viability, T/C [13] 95.4% | viability, T/C [14] 63% | viability, T/C [15] 91.9% | viability, T/C [16] 74.7% | viability, T/C [17] 86.8% | viability, T/C [18] 80.8% | viability, T/C [19] 60.3% | viability, T/C [20] 69.6% | viability, T/C [21] 53.8% | viability, T/C [22] 57.4% | viability, T/C [23] 71% | viability, T/C [24] 66.2% | viability, T/C [25] 52.9% | viability, T/C [26] 53.3% | viability, T/C [27] 53.5% | viability, T/C [28] 46.6% | viability, T/C [29] 62.6% | viability, T/C [30] 51.1% | viability, T/C [31] 32.1% | viability, T/C [32] 53.5% | viability, T/C [33] 49.9% | viability, T/C [34] 48% | viability, T/C [35] 48.1% | viability, T/C [36] 40.2%
> 10 µM: IC50 (second compound 0.0316 µM) | IC50 (second compound 0.1 µM) | IC50 (second compound 0.316 µM) | IC50 (second compound 1 µM) | IC50 (second compound 3.16 µM)
< 0.0316 µM: IC50 (second compound 10 µM)
